From patent US20230250066A1, “HERBICIDAL CINNOLINE DERIVATIVES” (SYNGENTA CROP PROTECTION AG, priority 2020, published 2023)

Columns and labels:
Format in all cases: in vivo
[1] = system: Zea mays (ZEAMX); test: Pre-emergence herbicidal test; details: 1000 g/ha, evaluated after 13 days
[2] = system: Setaria faberi (SETFA); test: Pre-emergence herbicidal test; details: 1000 g/ha, evaluated after 13 days
[3] = system: Amaranthus retoflexus (AMARE); test: Post-emergence herbicidal test; details: 1000 g/ha unless otherwise stated, evaluated after 13 days
Procedure: (§1) Seeds of a variety of test species are sown in standard soil in pots (Amaranthus retoflexus (AMARE), Solanum nigrum (SOLNI), Setaria faberi (SETFA), Lolium perenne (LOLPE), Echinochloa crus-galli (ECHCG), Ipomoea hederacea (IPOHE), Abutilon theophrasti (ABUTH), Zea mays (ZEAMX)). After 8 days cultivation under controlled conditions in a glasshouse (at 24° C./16° C., day/night; 14 hours light; 65% humidity), the plants are sprayed with an aqueous spray solution derived from the formulation of the technical active ingredient in acetone/water (50:50) solution containing 0.5% Tween 20 (polyoxyethelyene sorbitan monolaurate, CAS RN 9005-64-5). Compounds are applied at 1000 g/ha unless otherwise stated. The test plants are then grown in a glasshouse under controlled conditions in a glasshouse (at 24° C./16° C., day/night; 14 hours light; 65% humidity) and watered twice daily. After 13 days the test is evaluated for the percentage damage caused to the plant. The biological activities are shown in the following table on a five-point scale (5=81-100%; 4=61-80%; 3=41-60%; 2=21-40%; 1=10-20%; 0=0%;−=not tested).

[4] = system: Abutilon theophrasti (ABUTH); test: Post-emergence herbicidal test; details: 1000 g/ha unless otherwise stated, evaluated after 13 days
Procedure: as §1

[5] = system: Setaria faberi (SETFA); test: Post-emergence herbicidal test; details: 1000 g/ha unless otherwise stated, evaluated after 13 days
Procedure: as §1

[6] = system: Ipomoea hederacea (IPOHE); test: Post-emergence herbicidal test; details: 1000 g/ha unless otherwise stated, evaluated after 13 days
Procedure: as §1

[7] = system: Echinochloa crus-galli (ECHCG); test: Post-emergence herbicidal test; details: 1000 g/ha unless otherwise stated, evaluated after 13 days
Procedure: as §1

[8] = system: Zea mays (ZEAMX); test: Post-emergence herbicidal test; details: 1000 g/ha unless otherwise stated, evaluated after 13 days
Procedure: as §1

[9] = system: Amaranthus retoflexus (AMARE); test: Pre-emergence herbicidal test; details: 1000 g/ha, evaluated after 13 days
[10] = system: Ipomoea hederacea (IPOHE); test: Pre-emergence herbicidal test; details: 1000 g/ha, evaluated after 13 days
[11] = system: Echinochloa crus-galli (ECHCG); test: Pre-emergence herbicidal test; details: 1000 g/ha, evaluated after 13 days
[12] = system: Abutilon theophrasti (ABUTH); test: Pre-emergence herbicidal test; details: 1000 g/ha, evaluated after 13 days

| SMILES | percentage damage caused to the plant, five-point scale, ZEAMX [1] | percentage damage caused to the plant, five-point scale, SETFA [2] | percentage damage caused to the plant, AMARE (five-point scale) [3] | percentage damage caused to the plant, ABUTH (five-point scale) [4] | percentage damage caused to the plant, SETFA (five-point scale) [5] | percentage damage caused to the plant, IPOHE (five-point scale) [6] | percentage damage caused to the plant, ECHCG (five-point scale) [7] | percentage damage caused to the plant, ZEAMX (five-point scale) [8] | percentage damage caused to the plant, five-point scale, AMARE [9] | percentage damage caused to the plant, five-point scale, IPOHE [10] | percentage damage caused to the plant, five-point scale, ECHCG [11] | percentage damage caused to the plant, five-point scale, ABUTH [12] |
| --- | --- | --- | --- | --- | --- | --- | --- | --- | --- | --- | --- | --- |
| CC(C)Cc1cc(S(C)(=O)=O)c2c(=O)c(C(=O)O)nn(-c3ccc(OC(F)(F)F)cc3)c2c1 [Compound P14, 7-isobutyl-5-methylsulfonyl-4-oxo-1-[4-(trifluoromethoxy)phenyl]cinnoline-3-carboxylic acid] | 1 (1=10-20%) | 1 (1=10-20%) | 1 (1=10-20%) | 1 (1=10-20%) | 0 (0=0%) | 0 (0=0%) | 0 (0=0%) | 0 (0=0%) | 1 (1=10-20%) | 0 (0=0%) | 1 (1=10-20%) | 1 (1=10-20%) |
| CC(C)Cc1ccc2c(c1S(C)(=O)=O)c(=O)c(C(=O)O)nn2-c1ccc(OC(F)(F)F)cc1 [Compound P15, 6-isobutyl-5-methylsulfonyl-4-oxo-1-[4-(trifluoromethoxy)phenyl]cinnoline-3-carboxylic acid] | 0 (0=0%) | 1 (1=10-20%) | 1 (1=10-20%) | 1 (1=10-20%) | 1 (1=10-20%) | 0 (0=0%) | 1 (1=10-20%) | 1 (1=10-20%) | 1 (1=10-20%) | 0 (0=0%) | 1 (1=10-20%) | 1 (1=10-20%) |
| COc1ccc2c(c1S(C)(=O)=O)c(=O)c(C(=O)O)nn2-c1ccc(OC(F)(F)F)cc1 [Compound P18, 6-methoxy-5-methylsulfonyl-4-oxo-1-[4-(trifluoromethoxy)phenyl]cinnoline-3-carboxylic acid] | 1 (1=10-20%) | 0 (0=0%) | 1 (1=10-20%) | 1 (1=10-20%) | 2 (2=21-40%) | 0 (0=0%) | 1 (1=10-20%) | 1 (1=10-20%) | 0 (0=0%) | 0 (0=0%) | 1 (1=10-20%) | 0 (0=0%) |
| COc1cc(S(C)(=O)=O)c2c(=O)c(C(=O)O)nn(-c3ccc(OC(F)(F)F)cc3)c2c1 [Compound P19, 7-methoxy-5-methylsulfonyl-4-oxo-1-[4-(trifluoromethoxy)phenyl]cinnoline-3-carboxylic acid] | 0 (0=0%) | 5 (5=81-100%) | 1 (1=10-20%) | 1 (1=10-20%) | 3 (3=41-60%) | 1 (1=10-20%) | 2 (2=21-40%) | 1 (1=10-20%) | 1 (1=10-20%) | 0 (0=0%) | 2 (2=21-40%) | 0 (0=0%) |
| CS(=O)(=O)c1c(F)ccc2c1c(=O)c(C(=O)O)nn2-c1ccc(OC(F)(F)F)cc1 [Compound P20, 6-fluoro-5-methylsulfonyl-4-oxo-1-[4-(trifluoromethoxy)phenyl]cinnoline-3-carboxylic acid] | 0 (0=0%) | 0 (0=0%) | 0 (0=0%) | 0 (0=0%) | 0 (0=0%) | 0 (0=0%) | 0 (0=0%) | 0 (0=0%) | 0 (0=0%) | 0 (0=0%) | 0 (0=0%) | 0 (0=0%) |
| CS(=O)(=O)c1cc(F)cc2c1c(=O)c(C(=O)O)nn2-c1ccc(OC(F)(F)F)cc1 [Compound P21, 7-fluoro-5-methylsulfonyl-4-oxo-1-[4-(trifluoromethoxy)phenyl]cinnoline-3-carboxylic acid] | 1 (1=10-20%) | 4 (4=61-80%) | 0 (0=0%) | 0 (0=0%) | 2 (2=21-40%) | 0 (0=0%) | 2 (2=21-40%) | 0 (0=0%) | 0 (0=0%) | 0 (0=0%) | 2 (2=21-40%) | 0 (0=0%) |
| CCOC(=O)c1nn(-c2ccc(OC(F)(F)F)cc2)c2cccc(S(=O)(=O)CC)c2c1=O [Compound P22, ethyl 5-ethylsulfonyl-4-oxo-1-[4-(trifluoromethoxy)phenyl]cinnoline-3-carboxylate] | 0 (0=0%) | 0 (0=0%) | 1 (1=10-20%) | 1 (1=10-20%) | 1 (1=10-20%) | 1 (1=10-20%) | 1 (1=10-20%) | 0 (0=0%) | 0 (0=0%) | 0 (0=0%) | 0 (0=0%) | 0 (0=0%) |
| CCOC(=O)c1nn(-c2ccc(OC(F)(F)F)cc2)c2cccc(SCC)c2c1=O [Compound P23, ethyl 5-ethylsulfanyl-4-oxo-1-[4-(trifluoromethoxy)phenyl]cinnoline-3-carboxylate] | 1 (1=10-20%) | 0 (0=0%) | 0 (0=0%) | 1 (1=10-20%) | 1 (1=10-20%) | 1 (1=10-20%) | 1 (1=10-20%) | 1 (1=10-20%) | 0 (0=0%) | 0 (0=0%) | 0 (0=0%) | 0 (0=0%) |
| CCOC(=O)c1nn(-c2ccc(OC(F)(F)F)cc2)c2cccc([S+]([O-])CC)c2c1=O (stereo not drawn) [Compound P24, ethyl 5-ethylsulfinyl-4-oxo-1-[4-(trifluoromethoxy)phenyl]cinnoline-3-carboxylate] | 0 (0=0%) | 0 (0=0%) | 1 (1=10-20%) | 1 (1=10-20%) | 0 (0=0%) | 0 (0=0%) | 1 (1=10-20%) | 1 (1=10-20%) | 0 (0=0%) | 0 (0=0%) | 0 (0=0%) | 0 (0=0%) |
